The series is described as follows: activity coefficient (dimensionless); of the first substance listed, at infinite dilution; xn = mol fraction of the nth substance listed. The settings on record: 101 kPa, Liquid, Chromatography, x1 = 0.

The values below come from the NIST ThermoML archive (doi:10.1016/j.jct.2013.08.030).

± gives the expanded uncertainty stated by the source.

With `C=CCCCC` [hex-1-ene] + CCCC[N+]1(C)CCOCC1.N#C[C-](C#N)C#N, the activity coefficient reads like this: (318.15 K) 22.6 ± 1.5; (328.15 K) 21.3 ± 1.5; (338.15 K) 20 ± 1.4; (348.15 K) 19.1 ± 1.3; (358.15 K) 18.2 ± 1.2; (368.15 K) 17.4 ± 1.2.

As to `CCCCCCCCC` [nonane] + CCCC[N+]1(C)CCOCC1.N#C[C-](C#N)C#N, the activity coefficient by setting is: (318.15 K) 187 ± 13; (328.15 K) 168 ± 12; (338.15 K) 151 ± 10; (348.15 K) 137 ± 9; (358.15 K) 126 ± 9; (368.15 K) 115 ± 8.

Take `CC(C)=O` [acetone] + CCCC[N+]1(C)CCOCC1.N#C[C-](C#N)C#N: the activity coefficient is, setting by setting: (318.15 K) 0.741 ± 0.049; (328.15 K) 0.75 ± 0.049; (338.15 K) 0.765 ± 0.05; (348.15 K) 0.774 ± 0.051; (358.15 K) 0.791 ± 0.051; (368.15 K) 0.798 ± 0.052.

Regarding `CCc1ccccc1` [ethylbenzene] + CCCC[N+]1(C)CCOCC1.N#C[C-](C#N)C#N, the activity coefficient is, setting by setting: (318.15 K) 3.74 ± 0.25; (328.15 K) 3.74 ± 0.25; (338.15 K) 3.75 ± 0.26; (348.15 K) 3.75 ± 0.26; (358.15 K) 3.75 ± 0.26; (368.15 K) 3.75 ± 0.26.

On to `CCCCC` [pentane] + CCCC[N+]1(C)CCOCC1.N#C[C-](C#N)C#N, for which the activity coefficient came to 39.7 ± 2.7 (318.15 K); 35.5 ± 2.4 (328.15 K); 32.2 ± 2.2 (338.15 K); 29.8 ± 2 (348.15 K); 27.7 ± 1.9 (358.15 K); 26.2 ± 1.8 (368.15 K).

With `CCCCCCC` [heptane] + CCCC[N+]1(C)CCOCC1.N#C[C-](C#N)C#N, the activity coefficient reads like this: (318.15 K) 84 ± 5.8; (328.15 K) 76.8 ± 5.3; (338.15 K) 69.6 ± 4.8; (348.15 K) 63.3 ± 4.3; (358.15 K) 58.7 ± 4; (368.15 K) 53.7 ± 3.7.

As for `CCCC(C)=O` [pentan-2-one] + CCCC[N+]1(C)CCOCC1.N#C[C-](C#N)C#N, the activity coefficient is, setting by setting: (318.15 K) 1.44 ± 0.09; (328.15 K) 1.47 ± 0.1; (338.15 K) 1.49 ± 0.1; (348.15 K) 1.5 ± 0.1; (358.15 K) 1.53 ± 0.1; (368.15 K) 1.54 ± 0.1.

As for `CCC(=O)OC` [methyl propanoate] + CCCC[N+]1(C)CCOCC1.N#C[C-](C#N)C#N, the activity coefficient was 1.64 ± 0.11 (318.15 K); 1.67 ± 0.11 (328.15 K); 1.7 ± 0.11 (338.15 K); 1.73 ± 0.12 (348.15 K); 1.76 ± 0.12 (358.15 K); 1.79 ± 0.12 (368.15 K).

As for `c1ccccc1` [benzene] + CCCC[N+]1(C)CCOCC1.N#C[C-](C#N)C#N, the activity coefficient came to 1.53 ± 0.1 (318.15 K); 1.55 ± 0.1 (328.15 K); 1.57 ± 0.1 (338.15 K); 1.58 ± 0.1 (348.15 K); 1.61 ± 0.11 (358.15 K); 1.62 ± 0.11 (368.15 K).

Take `C1CCCC1` [cyclopentane] + CCCC[N+]1(C)CCOCC1.N#C[C-](C#N)C#N: the activity coefficient stood at 14.7 ± 1 (318.15 K); 13.7 ± 0.9 (328.15 K); 12.8 ± 0.9 (338.15 K); 12.1 ± 0.8 (348.15 K); 11.4 ± 0.8 (358.15 K); 10.9 ± 0.7 (368.15 K).

With `Cc1ccccc1` [toluene] + CCCC[N+]1(C)CCOCC1.N#C[C-](C#N)C#N, the activity coefficient (318.15 K) amounted to 2.3 ± 0.16; the activity coefficient (328.15 K) is 2.33 ± 0.16; the activity coefficient (338.15 K) is 2.36 ± 0.16; the activity coefficient (348.15 K) was 2.38 ± 0.16; the activity coefficient (358.15 K) is 2.41 ± 0.16; the activity coefficient (368.15 K) stood at 2.43 ± 0.17.

As to `O` [water] + CCCC[N+]1(C)CCOCC1.N#C[C-](C#N)C#N, the activity coefficient (318.15 K) was 1.03 ± 0.06; the activity coefficient (328.15 K) came out at 0.971 ± 0.061; the activity coefficient (338.15 K) worked out at 0.916 ± 0.058; the activity coefficient (348.15 K) worked out at 0.86 ± 0.055; the activity coefficient (358.15 K) came out at 0.819 ± 0.053; the activity coefficient (368.15 K) amounted to 0.78 ± 0.051.

With `CCCOCCC` [dipropyl ether] + CCCC[N+]1(C)CCOCC1.N#C[C-](C#N)C#N, the activity coefficient is, setting by setting: (318.15 K) 16.4 ± 1.1; (328.15 K) 15.9 ± 1.1; (338.15 K) 15.4 ± 1.1; (348.15 K) 14.9 ± 1; (358.15 K) 14.4 ± 1; (368.15 K) 13.9 ± 1.

Consider `CCCC=O` [butanal] + CCCC[N+]1(C)CCOCC1.N#C[C-](C#N)C#N, for which the activity coefficient by setting is: (318.15 K) 1.2 ± 0.08; (328.15 K) 1.24 ± 0.08; (338.15 K) 1.26 ± 0.08; (348.15 K) 1.3 ± 0.08; (358.15 K) 1.33 ± 0.09; (368.15 K) 1.35 ± 0.09.

Turning to `C1CCCCCCC1` [cyclooctane] + CCCC[N+]1(C)CCOCC1.N#C[C-](C#N)C#N, the activity coefficient was determined as 37 ± 2.5 (318.15 K); 34.1 ± 2.3 (328.15 K); 31.2 ± 2.1 (338.15 K); 29.1 ± 2 (348.15 K); 27 ± 1.8 (358.15 K); 25.1 ± 1.7 (368.15 K).

Regarding `CCCCCC` [hexane] + CCCC[N+]1(C)CCOCC1.N#C[C-](C#N)C#N, the activity coefficient is, setting by setting: (318.15 K) 56.5 ± 3.9; (328.15 K) 51.1 ± 3.5; (338.15 K) 46.7 ± 3.2; (348.15 K) 43.2 ± 3; (358.15 K) 40.3 ± 2.8; (368.15 K) 37.2 ± 2.5.

With `C1COCCO1` [1,4-dioxane] + CCCC[N+]1(C)CCOCC1.N#C[C-](C#N)C#N, the activity coefficient by setting is: (318.15 K) 0.707 ± 0.047; (328.15 K) 0.74 ± 0.049; (338.15 K) 0.772 ± 0.05; (348.15 K) 0.798 ± 0.052; (358.15 K) 0.831 ± 0.054; (368.15 K) 0.853 ± 0.055.

Take `c1ccncc1` [pyridine] + CCCC[N+]1(C)CCOCC1.N#C[C-](C#N)C#N: the activity coefficient runs as follows: (318.15 K) 0.733 ± 0.049; (328.15 K) 0.748 ± 0.049; (338.15 K) 0.758 ± 0.05; (348.15 K) 0.766 ± 0.05; (358.15 K) 0.766 ± 0.05; (368.15 K) 0.788 ± 0.051.

Take `Cc1cccc(C)c1` [1,3-dimethylbenzene] + CCCC[N+]1(C)CCOCC1.N#C[C-](C#N)C#N: the activity coefficient was determined as 3.54 ± 0.24 (318.15 K); 3.56 ± 0.24 (328.15 K); 3.61 ± 0.25 (338.15 K); 3.61 ± 0.25 (348.15 K); 3.62 ± 0.25 (358.15 K); 3.62 ± 0.25 (368.15 K).

Consider `CCC(C)CC` [3-methylpentane] + CCCC[N+]1(C)CCOCC1.N#C[C-](C#N)C#N, for which the activity coefficient was 51.3 ± 3.5 (318.15 K); 46 ± 3.1 (328.15 K); 42.3 ± 2.9 (338.15 K); 38.9 ± 2.7 (348.15 K); 36.3 ± 2.5 (358.15 K); 33.5 ± 2.3 (368.15 K).

Regarding `C1CCOC1` [tetrahydrofuran] + CCCC[N+]1(C)CCOCC1.N#C[C-](C#N)C#N, the activity coefficient was determined as 1.12 ± 0.07 (318.15 K); 1.15 ± 0.07 (328.15 K); 1.17 ± 0.07 (338.15 K); 1.18 ± 0.08 (348.15 K); 1.21 ± 0.08 (358.15 K); 1.22 ± 0.08 (368.15 K).

`CCO` [ethanol] + CCCC[N+]1(C)CCOCC1.N#C[C-](C#N)C#N: the activity coefficient (318.15 K) came out at 1.26 ± 0.08; the activity coefficient (328.15 K) was determined as 1.19 ± 0.08; the activity coefficient (338.15 K) was 1.12 ± 0.07; the activity coefficient (348.15 K) was 1.06 ± 0.07; the activity coefficient (358.15 K) turned out to be 1.01 ± 0.06; the activity coefficient (368.15 K) stood at 0.965 ± 0.061.

Take `C1=CCCCC1` [cyclohexene] + CCCC[N+]1(C)CCOCC1.N#C[C-](C#N)C#N: the activity coefficient was 9.44 ± 0.64 (318.15 K); 9.08 ± 0.62 (328.15 K); 8.71 ± 0.59 (338.15 K); 8.46 ± 0.58 (348.15 K); 8.16 ± 0.56 (358.15 K); 7.92 ± 0.54 (368.15 K).

With `c1ccsc1` [thiophene] + CCCC[N+]1(C)CCOCC1.N#C[C-](C#N)C#N, the activity coefficient by setting is: (318.15 K) 1.01 ± 0.06; (328.15 K) 1.04 ± 0.07; (338.15 K) 1.06 ± 0.07; (348.15 K) 1.08 ± 0.07; (358.15 K) 1.1 ± 0.07; (368.15 K) 1.12 ± 0.07.

Take `CCC(=O)CC` [pentan-3-one] + CCCC[N+]1(C)CCOCC1.N#C[C-](C#N)C#N: the activity coefficient by setting is: (318.15 K) 1.42 ± 0.09; (328.15 K) 1.44 ± 0.09; (338.15 K) 1.47 ± 0.1; (348.15 K) 1.49 ± 0.1; (358.15 K) 1.51 ± 0.1; (368.15 K) 1.54 ± 0.1.

In the case of `CCOCC` [diethyl ether] + CCCC[N+]1(C)CCOCC1.N#C[C-](C#N)C#N, the activity coefficient was found to be 5.39 ± 0.37 (318.15 K); 5.33 ± 0.36 (328.15 K); 5.27 ± 0.36 (338.15 K); 5.24 ± 0.36 (348.15 K); 5.21 ± 0.36 (358.15 K); 5.16 ± 0.35 (368.15 K).

For the compound `CCC[N+](=O)[O-]` [1-nitropropane] + CCCC[N+]1(C)CCOCC1.N#C[C-](C#N)C#N, the activity coefficient turned out to be 0.982 ± 0.062 (318.15 K); 0.99 ± 0.062 (328.15 K); 0.998 ± 0.062 (338.15 K); 1 ± 0.06 (348.15 K); 1.01 ± 0.06 (358.15 K); 1.01 ± 0.06 (368.15 K).

For `COC(C)=O` [methyl ethanoate] + CCCC[N+]1(C)CCOCC1.N#C[C-](C#N)C#N, the activity coefficient is 1.2 ± 0.08 (318.15 K); 1.23 ± 0.08 (328.15 K); 1.24 ± 0.08 (338.15 K); 1.26 ± 0.08 (348.15 K); 1.29 ± 0.08 (358.15 K); 1.3 ± 0.08 (368.15 K).
